Structures can show the parent of a compound that is named as a salt.

The nature of this data set: in vitro. The note with it: human, hek293t cells.
As for `N#CC(=Cc1csc(COc2ccccc2)n1)C(N)=O` [9-B12, 2-cyano-3-[2-(phenoxymethyl)-1,3-thiazol-4-yl]prop-2-enamide], the viability at 48 h, 25 µM is 116%.

Consider `C=CC(=O)NCc1cc(C(F)(F)C(F)(F)F)on1` [3-B19, N-{[5-(1,1,2,2,2-pentafluoroethyl)-1,2-oxazol-3-yl]methyl}prop-2-enamide], for which the viability at 48 h, 25 µM came out at 48.4%.

As to `Cc1cc(C(=O)CCl)c(C)[nH]1` [10-J08, 2-chloro-1-(2,5-dimethyl-1H-pyrrol-3-yl)ethan-1-one], the viability at 48 h, 25 µM turned out to be 1.07%.

Consider `CC(Cl)C(=O)Nc1cccc2ccccc12` (centres unmarked) [5-N12, 2-chloro-N-(naphthalen-1-yl)propanamide], for which the viability at 48 h, 25 µM came to 99.8%.

Turning to `C=CC(=O)NC(CN1CCCS1(=O)=O)C1CC1` (centres unmarked) [1-H10, N-[1-cyclopropyl-2-(1,1-dioxo-1lambda6,2-thiazolidin-2-yl)ethyl]prop-2-enamide], the viability at 48 h, 25 µM came to 100%.

`CC(Cl)C(=O)NC1CCCCC1` (centres unmarked) [4-O06, 2-chloro-N-cyclohexylpropanamide]: the viability at 48 h, 25 µM came out at 115%.

In the case of `Cc1c(Cl)cccc1NC(=O)C(C#N)=Cc1cccs1` [9-B05, N-(3-chloro-2-methylphenyl)-2-cyano-3-(thiophen-2-yl)prop-2-enamide], the viability at 48 h, 25 µM was 108%.

In the case of `CC(C)c1noc2ncc(C(=O)N3CCSSCC3)cc12` [10-F21, 5-[3-(propan-2-yl)-[1,2]oxazolo[5,4-b]pyridine-5-carbonyl]-1,2,5-dithiazepane], the viability at 48 h, 25 µM came to 86.3%.

For `Cn1cc(C(=O)CCl)cc1C(=O)C(Cl)(Cl)Cl` [10-N22, 2,2,2-trichloro-1-[4-(2-chloroacetyl)-1-methyl-1H-pyrrol-2-yl]ethan-1-one], the viability at 48 h, 25 µM was 1.4%.

On to `Cn1ccc(-c2nc(CNC(=O)CCl)cs2)n1` [6-B09, 2-chloro-N-{[2-(1-methyl-1H-pyrazol-3-yl)-1,3-thiazol-4-yl]methyl}acetamide hydrochloride], for which the viability at 48 h, 25 µM came out at 1.33%.

Regarding `CC1CCCN(Cc2ccc(CNC(=O)CCl)cc2)C1` (centres unmarked) [6-K04, 2-chloro-N-({4-[(3-methylpiperidin-1-yl)methyl]phenyl}methyl)acetamide hydrochloride], the viability at 48 h, 25 µM is 56.4%.

`O=C(CCl)NCc1cc(C(F)F)no1` [6-H08, 2-chloro-N-{[3-(difluoromethyl)-1,2-oxazol-5-yl]methyl}acetamide]: the viability at 48 h, 25 µM stood at 5.77%.

On to `C=CC(=O)NC1CC(C)Cc2cc(OC)ccc21` (centres unmarked) [3-L17, N-(6-methoxy-3-methyl-1,2,3,4-tetrahydronaphthalen-1-yl)prop-2-enamide], for which the viability at 48 h, 25 µM turned out to be 61.6%.

For the compound `N#CC(=Cc1ccc(O)cc1)C(=O)Nc1cc(Cl)ccc1Cl` [9-F03, 2-cyano-N-(2,5-dichlorophenyl)-3-(4-hydroxyphenyl)prop-2-enamide], the viability at 48 h, 25 µM was 87%.

Consider `O=C(CCl)Nc1nc2c(s1)CCCC2` [5-G15, 2-chloro-N-(4,5,6,7-tetrahydro-1,3-benzothiazol-2-yl)acetamide], for which the viability at 48 h, 25 µM stood at 1.2%.

On to `COc1cccc(NC(=O)C(C#N)=Cc2ccc(C)cc2C)c1` [8-C16, 2-cyano-3-(2,4-dimethylphenyl)-N-(3-methoxyphenyl)prop-2-enamide], for which the viability at 48 h, 25 µM came out at 91.5%.

In the case of `C=CC(=O)NC1C(=O)OCC1(C)C` (centres unmarked) [1-E08, N-(4,4-dimethyl-2-oxooxolan-3-yl)prop-2-enamide], the viability at 48 h, 25 µM was 83.7%.

With `CC(Cl)C(=O)NC1CCN(c2ccccc2C(F)(F)F)C1` (centres unmarked) [7-C17, 2-chloro-N-{1-[2-(trifluoromethyl)phenyl]pyrrolidin-3-yl}propanamide], the viability at 48 h, 25 µM is 67.5%.

As to `O=C(CCl)NOCc1ccccc1` [4-H22, N-(benzyloxy)-2-chloroacetamide], the viability at 48 h, 25 µM worked out at 63.3%.

In the case of `O=C1C=CC(=O)N1c1ccc2ccccc2c1` [10-D07, 1-(naphthalen-2-yl)-2,5-dihydro-1H-pyrrole-2,5-dione], the viability at 48 h, 25 µM amounted to 74.4%.

As for `N#CC(C(=O)N1CCCCC1)=C1N=C(N)c2ccccc21` [9-A21, 2-(3-amino-1H-isoindol-1-ylidene)-3-oxo-3-(piperidin-1-yl)propanenitrile], the viability at 48 h, 25 µM came to 102%.

Consider `CCc1ccc(C=C(C#N)C(=O)Nc2cc(C)c(Cl)cc2OC)cc1` [8-G11, N-(4-chloro-2-methoxy-5-methylphenyl)-2-cyano-3-(4-ethylphenyl)prop-2-enamide], for which the viability at 48 h, 25 µM came to 92%.

`CC(Cl)C(=O)N1CCN(Cc2ccnn2C)CC1` (centres unmarked) [7-I22, 2-chloro-1-{4-[(1-methyl-1H-pyrazol-5-yl)methyl]piperazin-1-yl}propan-1-one]: the viability at 48 h, 25 µM amounted to 99.9%.

With `C=CC(=O)NCc1ccc(C(=O)N2CCC(c3nc(C)no3)C2)cc1` (centres unmarked) [2-P08, N-({4-[3-(3-methyl-1,2,4-oxadiazol-5-yl)pyrrolidine-1-carbonyl]phenyl}methyl)prop-2-enamide], the viability at 48 h, 25 µM amounted to 52.5%.

For `C=CC(=O)Nc1ccc(F)c(-n2nnnc2C)c1` [2-K11, N-[4-fluoro-3-(5-methyl-1H-1,2,3,4-tetrazol-1-yl)phenyl]prop-2-enamide], the viability at 48 h, 25 µM turned out to be 195%.

Regarding `COc1ccccc1NC(=O)C(C#N)=Cc1ccco1` [8-H08, 2-cyano-3-(furan-2-yl)-N-(2-methoxyphenyl)prop-2-enamide], the viability at 48 h, 25 µM was 93%.

Regarding `COc1cc([N+](=O)[O-])ccc1NC(=O)C(C)Cl` (centres unmarked) [4-K12, 2-chloro-N-(2-methoxy-4-nitrophenyl)propanamide], the viability at 48 h, 25 µM was 91.3%.

In the case of `C=CC(=O)N1CCC(C(=O)NOC2CCCC2)(c2ccccc2)CC1` [3-K06, N-(cyclopentyloxy)-4-phenyl-1-(prop-2-enoyl)piperidine-4-carboxamide], the viability at 48 h, 25 µM was found to be 77.1%.

As to `C=CC(=O)Nc1cc(NC(=O)C2CCC2)ccc1F` [2-E10, N-[4-fluoro-3-(prop-2-enamido)phenyl]cyclobutanecarboxamide], the viability at 48 h, 25 µM is 86.7%.

For the compound `C=CC(=O)Nc1ccnn1C(C)C` [2-O07, N-[1-(propan-2-yl)-1H-pyrazol-5-yl]prop-2-enamide], the viability at 48 h, 25 µM is 101%.

As to `COc1ccccc1NC(=O)C(C#N)=Cc1ccc(C)s1` [8-B15, 2-cyano-N-(2-methoxyphenyl)-3-(5-methylthiophen-2-yl)prop-2-enamide], the viability at 48 h, 25 µM worked out at 103%.

With `N#CC(=Cc1ccc([N+](=O)[O-])cc1)C(=O)Nc1cccc2ncccc12` [9-K21, 2-cyano-3-(4-nitrophenyl)-N-(quinolin-5-yl)prop-2-enamide], the viability at 48 h, 25 µM came to 114%.

Consider `CC(Cl)C(=O)NCC(=O)Nc1ccc2c[nH]nc2c1` (centres unmarked) [7-N11, 2-chloro-N-{[(2H-indazol-6-yl)carbamoyl]methyl}propanamide], for which the viability at 48 h, 25 µM was 97%.

Take `C=CC(=O)Nc1ccc(Cl)cc1F` [1-I10, N-(4-chloro-2-fluorophenyl)prop-2-enamide]: the viability at 48 h, 25 µM was 47.1%.

For `C=CC(=O)N1CCC(C(=O)N[C@H]2CCO[C@H](c3ccccn3)C2)CC1` (racemic) [2-G15, rac-1-(prop-2-enoyl)-N-[(2R,4R)-2-(pyridin-2-yl)oxan-4-yl]piperidine-4-carboxamide], the viability at 48 h, 25 µM amounted to 66.9%.

As to `CN(CC(=O)NC1CCC(O)CC1)C(=O)CCl` (centres unmarked) [7-L08, 2-chloro-N-{[(4-hydroxycyclohexyl)carbamoyl]methyl}-N-methylacetamide], the viability at 48 h, 25 µM was 0.707%.

In the case of `C=CC(=O)N1CCOC(c2noc(C(C)C)n2)C1` (centres unmarked) [1-O05, 1-{2-[5-(propan-2-yl)-1,2,4-oxadiazol-3-yl]morpholin-4-yl}prop-2-en-1-one], the viability at 48 h, 25 µM was 87%.

Consider `CC(Cl)C(=O)N(Cc1cccs1)[C@@H]1C=C[C@H](CO)C1` (stereo partly drawn) [7-E14, 2-chloro-N-[(1S,4R)-4-(hydroxymethyl)cyclopent-2-en-1-yl]-N-[(thiophen-2-yl)methyl]propanamide], for which the viability at 48 h, 25 µM amounted to 87.9%.

On to `CC(Cl)C(=O)NCc1nnc(-c2ccncc2F)s1` (centres unmarked) [7-K18, 2-chloro-N-{[5-(3-fluoropyridin-4-yl)-1,3,4-thiadiazol-2-yl]methyl}propanamide], for which the viability at 48 h, 25 µM worked out at 78.4%.

As to `CC(C)NC(=O)C(C#N)=Cc1ccc(-c2ccc([N+](=O)[O-])cc2)o1` [8-I19, 2-cyano-3-[5-(4-nitrophenyl)furan-2-yl]-N-(propan-2-yl)prop-2-enamide], the viability at 48 h, 25 µM came out at 93%.

With `C=CC(=O)N1CCC(c2nc3c(s2)CCC3)CC1` [3-I22, 1-(4-{4H,5H,6H-cyclopenta[d][1,3]thiazol-2-yl}piperidin-1-yl)prop-2-en-1-one], the viability at 48 h, 25 µM is 91.2%.

Regarding `Cc1cccc(CN(C(=O)CCl)C(C)C)c1` [6-J05, 2-chloro-N-[(3-methylphenyl)methyl]-N-(propan-2-yl)acetamide], the viability at 48 h, 25 µM is 0.679%.

As for `CCOc1ccc2nc(NC(=O)CCl)sc2c1` [4-L10, 2-chloro-N-(6-ethoxy-1,3-benzothiazol-2-yl)acetamide], the viability at 48 h, 25 µM was determined as 0.621%.

With `CCc1ccc(NC(=O)C(C#N)=Cc2cccn2C)cc1` [8-A20, 2-cyano-N-(4-ethylphenyl)-3-(1-methyl-1H-pyrrol-2-yl)prop-2-enamide], the viability at 48 h, 25 µM was found to be 58.7%.

Regarding `O=C(CCl)NCc1ccccc1CN1CCCC1=O` [6-K14, 2-chloro-N-({2-[(2-oxopyrrolidin-1-yl)methyl]phenyl}methyl)acetamide], the viability at 48 h, 25 µM worked out at 2.03%.

Turning to `NS(=O)(=O)c1ccc(CNC(=O)CCl)cc1` [4-P12, 2-chloro-N-[(4-sulfamoylphenyl)methyl]acetamide], the viability at 48 h, 25 µM was 0.879%.

`O=C(CCl)NCCc1c(F)cccc1F` [5-F20, 2-chloro-N-[2-(2,6-difluorophenyl)ethyl]acetamide]: the viability at 48 h, 25 µM came to 15.5%.

With `C=CC(=O)N1CCCCC1C1CCCO1` (centres unmarked) [2-L21, 1-[2-(oxolan-2-yl)piperidin-1-yl]prop-2-en-1-one], the viability at 48 h, 25 µM turned out to be 66.2%.

For `O=C(CCl)c1cnc(N2CCCCC2)s1` [10-L17, 2-chloro-1-[2-(piperidin-1-yl)-1,3-thiazol-5-yl]ethan-1-one], the viability at 48 h, 25 µM came to 101%.

Regarding `C=CC(=O)N1CCOC(c2nccs2)C1` (centres unmarked) [3-H09, 1-[2-(1,3-thiazol-2-yl)morpholin-4-yl]prop-2-en-1-one], the viability at 48 h, 25 µM came out at 69.4%.

For the origin of these results see article PMC11995724, “Antibiotic target discovery by integrated phenotypic and activity-based profiling of electrophilic fragments” (Cell chemical biology, 2025).
